In brackets after ≈: the same amount, converted by molar mass.
Legend:
Format in all cases: functional
[1] = Antioxidant activity assessed as reduction in AAPH free radical-induced linoleic acid peroxidation activity measured at 100 ug/ml by UV spectroscopic analysis; design: scale not given: the % may be the effect or the level left
[2] = Antioxidant activity assessed as ABTS radical scavenging activity at 100 ug/ml after 30 mins
Aspergillus niger = assay: Antifungal activity against Aspergillus niger after 24 hrs by two fold dilution method
Candida albicans = assay: Antifungal activity against Candida albicans after 24 hrs by two fold dilution method
[3] = Antifungal activity against Cryptococcus neoformans after 24 hrs by two fold dilution method
[4] = Antifungal activity against Microsporum audouinii after 24 hrs by two fold dilution method
Klebsiella pneumoniae = assay: Antibacterial activity against Klebsiella pneumoniae after 24 hrs by two fold dilution method
[5] = test system: Staphylococcus epidermidis; assay: Antibacterial activity against Staphylococcus epidermidis after 24 hrs by two fold dilution method
[6] = Cytotoxicity against human HepG2 cells after 48 hrs by MTT assay; details: HepG2, 48 h
Escherichia coli = assay: Antibacterial activity against Escherichia coli after 24 hrs by two fold dilution method
[7] = Cytotoxicity against human MCF7 cells after 48 hrs by MTT assay; details: MCF7, 48 h
[8] = Cytotoxicity against human HeLa cells after 48 hrs by MTT assay
Staphylococcus aureus = assay: Antibacterial activity against Staphylococcus aureus after 24 hrs by two fold dilution method
Pseudomonas aeruginosa = assay: Antibacterial activity against Pseudomonas aeruginosa after 24 hrs by two fold dilution method

Compound | Activity [1] [%] | Activity [2] [%] | MIC (Aspergillus niger) [µg/mL] | MIC (Candida albicans) [µg/mL] | MIC [3] [µg/mL] | MIC [4] [µg/mL] | MIC (Klebsiella pneumoniae) [µg/mL] | MIC [5] [µg/mL] | GI50 [6] [µM] | LC50 [6] [µM] | TGI [6] [µM] | MIC (Escherichia coli) [µg/mL] | GI50 [7] [µM] | LC50 [7] [µM] | TGI [7] [µM] | GI50 [8] [µM] | LC50 [8] [µM] | TGI [8] [µM] | MIC (Staphylococcus aureus) [µg/mL] | MIC (Pseudomonas aeruginosa) [µg/mL]
Cc1c(C)c2c(c(C)c1O)CCC(C)(C(=O)O)O2 (stereo not drawn) | 62.3 | 85.2 | – | – | – | – | – | – | – | – | – | – | – | – | – | – | – | – | – | –
Clc1ccccc1C(c1ccccc1)(c1ccccc1)n1ccnc1 [CLOTRIMAZOLE] | – | – | 2 (≈ 5.8 µM) | 1 (≈ 2.9 µM) | 0.5 (≈ 1.45 µM) | 0.5 (≈ 1.45 µM) | – | – | – | – | – | – | – | – | – | – | – | – | – | –
O=[N+]([O-])c1ccc(N2C(O)CC(c3ccccc3)N2C(c2cncs2)N2CCOCC2)c([N+](=O)[O-])c1 (stereo not drawn) | 21.5 | 24.6 | 32 (≈ 62.4 µM) | 32 (≈ 62.4 µM) | 32 (≈ 62.4 µM) | 64 (≈ 125 µM) | > 100 | 32 (≈ 62.4 µM) | 32 | 89.3 | 61.3 | 2 (≈ 3.9 µM) | 34 | > 100 | 67.4 | 37.9 | 78.9 | 51.9 | > 100 | 64 (≈ 125 µM)
O=[N+]([O-])c1ccc(N2C(O)CC(c3ccccc3)N2C(c2ccc(Cl)cc2)N2CCOCC2)c([N+](=O)[O-])c1 (stereo not drawn) | 32 | 41.9 | 64 (≈ 119 µM) | 1 (≈ 1.85 µM) | 64 (≈ 119 µM) | 64 (≈ 119 µM) | 64 (≈ 119 µM) | > 100 | 12.2 | 42.8 | 23.1 | 0.5 (≈ 0.926 µM) | 46.1 | > 100 | 85.1 | 51 | > 100 | 89.2 | 64 (≈ 119 µM) | 64 (≈ 119 µM)
CN(C)c1ccc(C(N2CCOCC2)N2C(c3ccccc3)CC(O)N2c2ccc([N+](=O)[O-])cc2[N+](=O)[O-])cc1 (stereo not drawn) | 29.6 | 31 | > 100 | 2 (≈ 3.65 µM) | > 100 | > 100 | 64 (≈ 117 µM) | 2 (≈ 3.65 µM) | 35.8 | > 100 | 62.3 | 8 (≈ 14.6 µM) | 13.9 | > 100 | 28.9 | 29.2 | > 100 | 57.9 | > 100 | 64 (≈ 117 µM)
O=[N+]([O-])c1ccc(N2C(O)CC(c3ccccc3)N2C(c2ccccc2)N2CCOCC2)c([N+](=O)[O-])c1 (stereo not drawn) | 21.8 | 34.6 | > 100 | > 100 | – | – | > 100 | – | 43.2 | > 100 | 78.3 | 8 (≈ 15.8 µM) | – | > 100 | – | – | > 100 | – | – | –
CC(C)=CCC/C(C)=C\C(N1CCOCC1)N1C(c2ccccc2)CC(O)N1c1ccc([N+](=O)[O-])cc1[N+](=O)[O-] (stereo not drawn) | 84.5 | 91.3 | 8 (≈ 14.5 µM) | 0.5 (≈ 0.906 µM) | 32 (≈ 58 µM) | 16 (≈ 29 µM) | 8 (≈ 14.5 µM) | 8 (≈ 14.5 µM) | 38.1 | > 100 | 69.1 | 64 (≈ 116 µM) | 7.8 | 40.4 | 21.9 | 13.8 | 71.4 | 29.6 | > 100 | 1 (≈ 1.81 µM)
COc1ccc(C(N2CCOCC2)N2C(c3ccccc3)CC(O)N2c2ccc([N+](=O)[O-])cc2[N+](=O)[O-])cc1 (stereo not drawn) | 59.1 | 61.2 | > 100 | > 100 | > 100 | 8 (≈ 14.9 µM) | > 100 | 8 (≈ 14.9 µM) | – | > 100 | – | > 100 | – | > 100 | – | 31.8 | > 100 | 63.2 | 4 (≈ 7.47 µM) | > 100

From ChEMBL document CHEMBL3872243, “Synthesis of new morpholine-connected pyrazolidine derivatives and their antimicrobial, antioxidant, and cytotoxic activities” (2017)
